For assay [1], the system named is parental CHO—K1 cells. Nature of the assay: cAMP levels in parental CHO-K1 cells. It counts as cell-based, Chinese hamster. To be noted: parental (untransfected) CHO-K1 cells. Background: Changes in cAMP serve as a functional read-out for many G protein-coupled receptors.
For assay [2], the target named is T1, cynomolgus macaque prostaglandin receptor EP4 (cynEP4) (Macaca fascicularis, UniProt Q95J39). As to the kind of experiment: Competition binding with 3H-PGE2 on CHO-K1 cells transiently transfected with cynomolgus macaque EP4. To be noted: for IC50: cynEP4 transfected CHO-K1 whole cells, 3 nM 3H-PGE2, 1 hr on ice, read-out: IC50, displacement of 3H-PGE2 binding. A general note: Loss of bound radioactivity is the signal in a displacement assay; it reports binding, not function.
Procedure: Each indicated concentration of (▪) PGE2, (♦) EP4SL, (▴) butaprost, or (●) sulprostone was incubated with three wells of a 24-well dish of CHO cells transiently transfected with cynEP4 for 1 hr on ice in the presence of 3 nM ^3H-PGE2. Following washing and solubilization of the cells, specific binding was determined by scintillation counting.
(§4) To test the binding and signaling characteristics of this putative ba/cynEP4 receptor, DNA fragments containing the entire open reading frames of each baboon and cynomolgus macaque were separately transiently transfected into CHO—K1 cells.
CHO cells transiently transfected with the baboon EP4 or cynomolgus macaque EP4 receptor were plated at 60,000 cells/well in 24-well tissue-culture dishes (Corning, Corning, N.Y.) and allowed to grow for 48 hours. Whole cell binding reactions (0.2 ml per well) containing 3 nM ^3H-PGE2 plus unlabeled competitor (10^−5 to 10^−10 M) were performed on ice for 1 hr. Unbound radioligand was removed by extensive washing, the cells were solubilized with 1% SDS, and the bound ^3H-PGE2 quantitated by scintillation counting.

The target in assay [3] is T1, cynomolgus macaque prostaglandin receptor EP4 (cynEP4). As to the kind of experiment: cAMP accumulation (SPA) in CHO cells transiently transfected with cynomolgus macaque EP4. It counts as cell-based. The following applies: 12 minutes treatment, IBMX present. The method, then:
FIG. 7 provides characterization of secondary signaling in CHO cells expressing cynomolgus macaque prostaglandin receptor EP4. An SPA assay was performed on CHO cells transiently transfected with cynEP4 following treatment for 12 minutes with either (▪) PGE2 or the EP4 specific ligand (●) EP4SL. Error bars represent one standard deviation.
(§1) Secondary signaling in CHO cells expressing baEP4 or cynEP4 was measured by cAMP accumulation. CHO cells transiently transfected with baEP4 or cynEP4 were treated for 12 minutes with various concentrations of PGE2 in the presence of 2 mM IBMX. Accumulation of intracellular cAMP was measured at the end of the treatment period by use of a commercially available scintillation proximity assay (SPA) kit (Amersham, Arlington Heights, Ill.).
(§2) The day prior to transfection, CHO—K1 cells were plated in 100 mm dishes (Corning, Corning, N.Y.) at 6×10^4 cells/cm^2 in DMEM/F12 (Life Technologies) supplemented with 10% fetal calf serum (FCS; Gemini Bio-Products, Calabasas, Calif.). […]
(§3) To measure stimulation of cAMP production, CHO cells transiently transfected with the baboon EP4 or cynomolgus macaque EP4 receptor were plated at 20,000 cells/well in poly-D lysine coated 96-well tissue-culture plates (Becton-Dickinson, Franklin Lakes, N.J.) and allowed to grow for 72 hours. […] Assay plates were then counted in a Wallac Trilux counter (Perkin Elmer, Boston, Mass.).

Assay [4] has as its target T2, baboon prostaglandin receptor EP4 (baEP4) (Papio cynocephalus, UniProt Q7JGJ7). Nature of the assay: Competition binding with 3H-PGE2 on CHO-K1 cells transiently transfected with baboon EP4. To be noted: for IC50: baEP4 transfected CHO-K1 whole cells, 3 nM 3H-PGE2, 1 hr on ice, read-out: IC50, displacement of 3H-PGE2 binding.
Procedure: Following washing and solubilization of the cells, specific binding was determined by scintillation counting.
as §4
The day prior to transfection, CHO—K1 cells were plated in 100 mm dishes (Corning, Corning, N.Y.) at 6×10^4 cells/cm^2 in DMEM/F12 (Life Technologies) supplemented with 10% fetal calf serum (FCS; Gemini Bio-Products, Calabasas, Calif.). The next day, each plate of cells was transfected with 15 g of either baboon or cynomolgus macaque EP4-pCR3.1-Uni plasmid DNA using Lipofectamine 2000 reagent (Life Technologies) according to the manufacturer's protocol. Briefly, 45 l of Lipofectamine 2000 reagent was diluted into 1.5 ml of D-MEM/F12 without serum and incubated at room temperature for 5 minutes. During this time, 15 g of either baboon or cynomolgus macaque EP4-pCR3.1-Uni plasmid DNA was diluted into 0.5 ml of D-MEM/F12 without serum. The diluted Lipofectamine 2000 reagent and the DNA were then mixed and incubated an additional 20 minutes at room temperature. 8 ml D-MEM/F12 without serum was then added to each reaction and carefully added to a plate of CHO cell previously rinsed with serum free D-MEM/F12. These cells were then incubated at 37° C. with 5% CO2 for 6 hr at which time 1 ml FCS was added per plate and the incubation continued at 37° C. with 5% CO2 overnight. The following day, the cells were split to either 24-well or 96-well dishes for use in ligand binding and/or secondary signaling analyses.
CHO cells transiently transfected with the baboon EP4 or cynomolgus macaque EP4 receptor were plated at 60,000 cells/well in 24-well tissue-culture dishes (Corning, Corning, N.Y.) and allowed to grow for 48 hours. […] Unbound radioligand was removed by extensive washing, the cells were solubilized with 1% SDS, and the bound ^3H-PGE2 quantitated by scintillation counting.
The target in assay [5] is T2, baboon prostaglandin receptor EP4 (baEP4). As to the kind of experiment: cAMP accumulation (SPA) in CHO cells transiently transfected with baboon EP4. It counts as cell-based. The following applies: 12 minutes treatment, IBMX present. The method, then:
FIG. 6 provides characterization of secondary signaling in CHO cells expressing baboon prostaglandin receptor EP4. An SPA assay was performed on CHO cells transiently transfected with baboon EP4 following treatment for 12 minutes with either (▪) PGE2 or the EP4 specific ligand (●) EP4SL. Error bars represent one standard deviation.
as §1, §2, §3

Structures are written as SMILES.

T2 sequence (Q7JGJ7 entry or part of it): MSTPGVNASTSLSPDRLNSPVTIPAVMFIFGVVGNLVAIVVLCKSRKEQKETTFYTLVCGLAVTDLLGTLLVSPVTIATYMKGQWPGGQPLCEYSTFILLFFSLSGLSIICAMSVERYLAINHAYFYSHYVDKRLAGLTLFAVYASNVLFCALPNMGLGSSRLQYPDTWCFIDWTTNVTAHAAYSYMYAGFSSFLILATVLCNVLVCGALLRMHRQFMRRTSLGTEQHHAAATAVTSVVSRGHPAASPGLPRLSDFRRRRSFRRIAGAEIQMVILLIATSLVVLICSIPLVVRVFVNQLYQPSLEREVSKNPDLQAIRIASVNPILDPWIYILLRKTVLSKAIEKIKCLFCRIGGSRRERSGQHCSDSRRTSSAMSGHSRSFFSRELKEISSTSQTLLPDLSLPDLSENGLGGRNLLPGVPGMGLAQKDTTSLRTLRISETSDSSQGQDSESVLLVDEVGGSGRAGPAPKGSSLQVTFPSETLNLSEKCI
T1 sequence (Q95J39 entry or part of it): as the sequence (Q7JGJ7 entry or part of it) above

The term IC50 denotes the concentration that inhibits the measured activity by half. A word on the EC50: it is the concentration that produces a half-maximal response. As to `CCCCC[C@H](O)/C=C/[C@H]1[C@H](O)CC(=O)[C@@H]1C/C=C\CCCC(=O)O` [PGE2, Prostaglandin E2], in assay [1], the “increased levels of cAMP, result in words” value is listed as “not in parental CHO—K1 cells”. Also, the IC50 in assay [2] was 2.5 nM; in assay [4], 2.6 nM. In addition, the EC50 in assay [3] was 8.9 nM; in assay [5], 22.4 nM.
For `O=C(O)CCCCCCN1C(=O)CCC1CCC(O)Cc1ccccc1` (stereo not drawn) [EP4SL, 7-[2-(3-hydroxy-4-phenyl-butyl)-5-oxo-pyrrolidin-1-yl]-heptanoic acid], in that order: “not in parental CHO—K1 cells”, 300 nM, 361 nM, 560 nM and 872 nM.
On to `CCCC1([C@H](O)C/C=C/[C@H]2[C@H](O)CC(=O)[C@@H]2CCCCCCC(=O)OC)CCC1` [butaprost], for which the “binding to the receptor (competition with 3H-PGE2), result in words” value in assay [2] (cynEP4 transfected CHO-K1 cells, competitor 10^-5 to 10^-10 M) is given as “did not bind”; in assay [4] (baEP4 transfected CHO-K1 cells, competitor 10^-5 to 10^-10 M) it was “did not bind”.
